Starred links: 1 amine or outer side, 2 acyl side, 3 side chain; linkers in the order of their positions; H or OH if unused. Non-standard residues stand in square brackets, D forms with d. Residues, ends and D or L forms follow the SMILES beside them. Groups on a side chain read outwards from the residue. *: point of attachment. γGlu = O=C(O)[C@H](CCC(=O)[*:2])N[*:1]; Palmitoyl = CCCCCCCCCCCCCCCC(=O)*; Aib = CC(C)(N)C(=O)O

The values below come from patent US11471512B2, “Pharmaceutical compositions of a peptide” (Merck Sharp & Dohme Corp., priority 2019, dated 2022).

Data set [1] in a line: Water solubility of the peptide as a function of pH. It is filed as physicochemical. The note with it: between pH 4 and pH 6.
The nature of data set [2]: Chemical stability of the peptide in aqueous formulation as a function of pH. The note with it: above pH 7.6. It is filed as physicochemical.

Take `CCCCCCCCCCCCCCCC(=O)N[C@@H](CCC(=O)N[C@@H](CCC(=O)NCCCC[C@H](NC(=O)[C@H](CC(=O)O)NC(=O)[C@H](CO)NC(=O)[C@@H](NC(=O)[C@H](Cc1ccccc1)NC(=O)[C@@H](NC(=O)CNC(=O)[C@H](CCC(N)=O)NC(=O)C(C)(C)NC(=O)[C@@H](N)Cc1c[nH]cn1)[C@@H](C)O)[C@@H](C)O)C(=O)N[C@@H](CO)C(=O)N[C@@H](CCCCN)C(=O)N[C@@H](Cc1ccc(O)cc1)C(=O)N[C@@H](CC(C)C)C(=O)N[C@@H](CC(=O)O)C(=O)NC(C)(C)C(=O)N[C@@H](CCCNC(=N)N)C(=O)N[C@@H](C)C(=O)N[C@@H](C)C(=O)N[C@@H](CCC(N)=O)C(=O)N[C@@H](CC(=O)O)C(=O)N[C@@H](Cc1ccccc1)C(=O)N[C@H](C(=O)N[C@@H](CCC(N)=O)C(=O)N[C@@H](Cc1c[nH]c2ccccc12)C(=O)N[C@@H](CC(C)C)C(=O)N[C@@H](CCSC)C(=O)N[C@@H](CC(N)=O)C(=O)N[C@H](C(=O)N[C@@H](CCCCN)C(=O)N[C@@H](CCC(N)=O)C(=O)O)[C@@H](C)O)C(C)C)C(=O)O)C(=O)O` [peptide of SEQ ID NO. 1, HUQGTFTSD K(γGlu-γGlu-C16) SKYLD aibRAAQDFVQWLMNTKγGlu-amide] (H-H[Aib]QGTFTSDK([γGlu-γGlu-Palmitoyl])SKYLD[Aib]RAAQDFVQWLMNTKQ-OH; N-terminus and C-terminus assumed): in data set [1], the water solubility entry was “poor water solubility”. The chemical stability entry in data set [2] is recorded as “poor chemical stability”.
